Columns and labels:
[1] = Particle size and polydispersity index (PDI) of lipid nanoparticles by dynamic light scattering; assay type: physicochemical; conditions: for PDI: LNP formulation of the cationic lipid, 25° C.; for Particle size: LNP formulation of the cationic lipid/DSPC/cholesterol/DMG-PEG2000 49:10:39.5:1.5, 25° C.
Protocol: The particle size and polydispersity index (PDI) were determined by dynamic light scattering using Malvern laser particle size analyzer.
10 μL of the liposome solution was weighed, diluted to 1 mL with RNase-free deionized water, and added to the sample pool. Each sample was measured in triplicate. The measurement conditions were: […] scattering angle, and 25° C.

[2] = Detection of encapsulation efficiency, drug loading concentration and total RNA concentration (RiboGreen); assay type: physicochemical; conditions: for Drug loading concentration / Encapsulation efficiency / Total RNA concentration: LNP formulation prepared from the cationic lipid; for encapsulation efficiency higher than ALC-0315: difference vs ALC-0315; for encapsulation efficiency higher than HIMA: difference vs HIMA (HHMA); for encapsulation efficiency higher than SM-102: difference vs SM-102; for encapsulation efficiency higher than YK-009: difference vs YK-009; for encapsulation efficiency higher than compound 21: difference vs compound 21; for encapsulation efficiency higher than compound 23: difference vs compound 23; for drug loading concentration, times that of ALC-0315 / total RNA concentration, times that of ALC-0315: ratio vs ALC-0315; for drug loading concentration, times that of HIMA / total RNA concentration, times that of HIMA: ratio vs HIMA (HHMA); for drug loading concentration, times that of SM-102 / total RNA concentration, times that of SM-102: ratio vs SM-102; for drug loading concentration, times that of YK-009 / total RNA concentration, times that of YK-009: ratio vs YK-009; for drug loading concentration, times that of compound 21 / total RNA concentration, times that of compound 21: ratio vs compound 21; for drug loading concentration, times that of compound 23 / total RNA concentration, times that of compound 23: ratio vs compound 23
From the text: Encapsulation efficiency is a key quality attribute of liposomes, which refers to the percentage of drug content encapsulated in the lipid bimolecular layer accounting for the total drug dose and can reflect the degree of drug encapsulation in liposomes. The Chinese Pharmacopoeia stipulates that the encapsulation efficiency should generally not be less than 80%.
The drug loading amount is the ratio of the amount of drug in the liposome to the total amount of drug and carrier in the liposome. The drug loading amount directly affects the clinical application dose of the drug. […] The drug loading concentration is proportional to the drug loading amount, and the relative proportion of the drug loading concentrations can represent the relative proportion of the drug loading amounts. The relative ratio of the total RNA concentrations may represent the relative ratio of the amounts of mRNA carried by the LNP formulations.
1×TE buffer, 0.1% Triton X-100 buffer, RiboGreen reagent (1: 200) and mRNA standard stock solution were prepared.
An appropriate amount of the sample was added to an appropriate amount of 1×TE buffer, and the mixture was diluted to obtain a solution containing approximately […] sample per 1 mL. Then the sample was added to a 96-well plate, and 50 μL of the diluted test sample or the mRNA standard stock solution was added to each well, then 1×TE buffer and 0.1% Triton X-100 buffer were added. The sample was incubated at 37° C. for 10 minutes, and 100 μL RiboGreen reagent (1:200) was added to each well of the test sample in the 96-well plate. The sample was centrifugated, and the data were read using a microplate reader, and processed.

293T cells = test: Cell transfection test of LNP formulation of eGFP-mRNA (optimization of preparation conditions); assay type: cell-based; conditions: for transfection efficiency at different molar ratios of polymer-conjugated lipid DMG-PEG2000 to carrier: 0.5% to 15%; for transfection effect at different molar ratios of cationic lipid, neutral lipid, structured lipid and polymer-conjugated lipid: 75:5:15:5 to 25:5:65:5
Protocol: The cationic lipid compound YK-407 synthesized in Example 1 was dissolved in ethanol with DSPC (AVT (Shanghai) Pharmaceutical Technology Co., Ltd.), cholesterol (AVT (Shanghai) Pharmaceutical Technology Co., Ltd.) and DMG-PEG2000 according to a molar ratio of 49:10:39.5:1.5, respectively, to prepare an ethanol lipid solution. The ethanol lipid solution was quickly added to citrate buffer (pH=4-5) by ethanol injection method, and vortexed for 30s for later use. eGFP-mRNA was diluted in citrate buffer (pH=4-5) to give an aqueous mRNA solution. A certain volume of liposome solution and mRNA aqueous solution were used to prepare liposomes at weight ratios of total lipids to mRNA of 5:1, 10:1, 15:1, 20:1, 30:1 and 35:1, respectively. The mixtures were sonicated at 25° C. for 15 min (with an ultrasonic frequency of 40 kHz and an ultrasonic power of 800 W). The resulted liposomes were diluted to 10 times volume with PBS, and then ultrafiltered with a 300KDa ultrafiltration tube to remove ethanol. Then the volume was fixed to a certain volume with PBS to give an LNP formulation encapsulating eGFP-mRNA using cationic lipid YK-407/DSPC/cholesterol/DMG-PEG2000 (49:10:39.5:1.5 in molar percentage).
The LNP formulation encapsulating eGFP-mRNA was prepared according to the method in 1, wherein the molar ratios of cationic lipid YK-407 to neutral lipid DSPC were 1:1, 3:1, 3.5:1, 4:1, 4.5:1, 4.9:1, 10:1, 15:1 and 20:1.
The LNP formulation encapsulating eGFP-mRNA was prepared according to the method in 1, wherein the cationic lipid in the carrier was YK-407, and the molar ratios of the polymer-conjugated lipid DMG-PEG2000 to the carrier were 0.5%, 1.5%, 3.5%, 5%, 10% and 15%, respectively.
The LNP formulation encapsulating eGFP-mRNA was prepared according to the method in 1, wherein the molar ratios of cationic lipid YK-407, neutral lipid DSPC, structured lipid cholesterol and polymer-conjugated lipid DMG-PEG2000 were 75:5:15:5, 49:10:39.5:1.5, 45:10:43.5:1.5, 45:25:20:10, 40:10:48.5:1.5, 35:10:53.5:1.5 and 25:5:65:5, respectively.
Cell recovery and passage: 293T cells were recovered, cultured in a culture dish, and passaged to the required number of cells.
Seeding plate: The cells in the culture dish were digested and counted. Cells were spread in a 96-well plate at 10,000 cells per well and in a 12-well plate at 150,000 cells per well. Cells were cultured overnight until the cells adhered to the wall.
Cell transfection test: The LNP formulation containing 1.5 μg of eGFP-mRNA prepared in Example 2 (the cationic lipid in the carrier was YK-407) and the Lipofectamin 3000 formulation of eGFP-mRNA were added respectively to the cell culture medium of the 12-well plate, and further incubated for 24 hours. The transfection efficiency of different samples was then investigated according to the fluorescence intensity by observing with a fluorescence microscope.

| Structure (SMILES) | PDI [1] [%] | Particle size [1] [nm] | Drug loading concentration [2] [µg/mL] | Encapsulation efficiency [2] [%] | Total RNA concentration [2] [µg/mL] | encapsulation efficiency higher than ALC-0315 [2] [%] | encapsulation efficiency higher than HIMA [2] [%] | encapsulation efficiency higher than SM-102 [2] [%] | encapsulation efficiency higher than YK-009 [2] [%] | encapsulation efficiency higher than compound 21 [2] [%] | encapsulation efficiency higher than compound 23 [2] [%] | drug loading concentration, times that of ALC-0315 [2] | total RNA concentration, times that of ALC-0315 [2] | drug loading concentration, times that of HIMA [2] | total RNA concentration, times that of HIMA [2] | drug loading concentration, times that of SM-102 [2] | total RNA concentration, times that of SM-102 [2] | drug loading concentration, times that of YK-009 [2] | total RNA concentration, times that of YK-009 [2] | drug loading concentration, times that of compound 21 [2] | also measured |
| --- | --- | --- | --- | --- | --- | --- | --- | --- | --- | --- | --- | --- | --- | --- | --- | --- | --- | --- | --- | --- | --- |
| CCCCCCCCC(CCCCCCCC)OC(=O)CCCCCN(CCO)CCN(CCO)CCCCCC(=O)OC(CCCCCCCC)CCCCCCCC [YK-401, di(heptadecan-9-yl) 6,6′-(ethane-1,2-diyl-bis((2-hydroxyethyl)azanediyl))dihexanoate] | 17.7 | 152 | 37.16 | 83.6 | 41.71 | 20.3 | 23.4 | 20.7 | 20.2 | 25.6 | 27.4 | 1.38 | 1.10 | 1.14 | 1.14 | 1.40 | 1.16 | 1.35 | 1.08 | 1.69 | total RNA concentration, times that of compound 21 [2]: 1.44; drug loading concentration, times that of compound 23 [2]: 1.86; total RNA concentration, times that of compound 23 [2]: 1.34; transfection efficiency at different molar ratios of polymer-conjugated lipid DMG-PEG2000 to carrier (293T cells): same results; transfection effect at different molar ratios of cationic lipid, neutral lipid, structured lipid and polymer-conjugated lipid (293T cells): same results |
| CCCCCCCCC(CCCCCCCC)COC(=O)CCCCCN(CCCO)CCN(CCCO)CCCCCC(=O)OCC(CCCCCCCC)CCCCCCCC [YK-422, di(2-octyldecyl) 6,6′-(ethane-1,2-diyl-bis((3-hydroxypropyl)azanediyl))dihexanoate] | 13.9 | 146 | 45.05 | 92.4 | 45.76 | 29.1 | 32.2 | 29.5 | 29.0 | 34.4 | 36.2 | 1.68 | 1.21 | 1.38 | 1.26 | 1.70 | 1.27 | 1.64 | 1.19 | 2.05 | total RNA concentration, times that of compound 21 [2]: 1.58; drug loading concentration, times that of compound 23 [2]: 2.25; total RNA concentration, times that of compound 23 [2]: 1.47; transfection efficiency at different molar ratios of polymer-conjugated lipid DMG-PEG2000 to carrier (293T cells): same results; transfection effect at different molar ratios of cationic lipid, neutral lipid, structured lipid and polymer-conjugated lipid (293T cells): same results |
| CCCCCCCCCCCOC(=O)CCCN(CCO)CCN(CCO)CCCCCC(=O)OC(CCCCCCCC)CCCCCCCC [YK-407] | 16.6 | 162 | 35.67 | 85.2 | 40.77 | 21.9 | 25.0 | 22.3 | 21.8 | 27.2 | 29.0 | 1.33 | 1.08 | 1.09 | 1.12 | 1.34 | 1.13 | 1.30 | 1.06 | 1.62 | total RNA concentration, times that of compound 21 [2]: 1.41; drug loading concentration, times that of compound 23 [2]: 1.78; total RNA concentration, times that of compound 23 [2]: 1.31; transfection efficiency at different molar ratios of polymer-conjugated lipid DMG-PEG2000 to carrier (293T cells): the transfection efficiency was the highest when the molar ratio was 1.5%; transfection effect at different molar ratios of cationic lipid, neutral lipid, structured lipid and polymer-conjugated lipid (293T cells): the transfection effect was the best when the ratio was 40:10:48.5:1.5; transfection efficiency at different molar ratios of cationic lipid to neutral lipid DSPC (293T cells; ratios 1:1 to 20:1): the transfection efficiency was the highest at the molar ratio of cationic lipid to neutral lipid of 4:1; transfection effect at different weight ratios of carrier to mRNA (293T cells; ratios 5:1, 10:1, 15:1, 20:1, 30:1 and 35:1): the ratio of 15:1 had the best transfection effect |
| CCCCCCCCC(CCCCCCCC)C(=O)OCCCCCCN(CCO)CCN(CCO)CCCCCCOC(=O)C(CCCCCCCC)CCCCCCCC [YK-402] | 17.1 | 155 | 37.67 | 91.0 | 40.09 | 27.7 | 30.8 | 28.1 | 27.6 | 33.0 | 34.8 | 1.40 | 1.06 | 1.15 | 1.10 | 1.42 | 1.11 | 1.37 | 1.04 | 1.71 | total RNA concentration, times that of compound 21 [2]: 1.39; drug loading concentration, times that of compound 23 [2]: 1.88; total RNA concentration, times that of compound 23 [2]: 1.29; transfection efficiency at different molar ratios of polymer-conjugated lipid DMG-PEG2000 to carrier (293T cells): same results; transfection effect at different molar ratios of cationic lipid, neutral lipid, structured lipid and polymer-conjugated lipid (293T cells): same results |
